Laboratory results reported in US20240225985A1, “BRIGHTENING COMPOSITIONS AND METHODS OF USE” (Alastin Skincare, Inc., priority 2021, published 2024).
Ends that are not written are not given here. * marks the point of attachment. Palmitoyl = CCCCCCCCCCCCCCCC(=O)*

Key:
[1] = tested on: melanocytes; assay: In vitro melanocyte comparative analysis via absorbance readings (melanin production); type: cell-based; conditions: for Regulation of melanogenesis (decreased absorption denoting decreased melanin formation): melanocytes, summary of Table 10
Experimental: Melanocytes were cultured in 6-well plates containing growth media. Once confluent, 2 concentrations of each of the 10 compounds were added to the cells in triplicate wells for 4 days. There were a total of eleven 6-well plates, one for each compound treatment and one for the vehicle control. Absorbance readings were taken on the lysates prepared for each well of the 6-well plates, normalizing for cells counts. The model was initially tested for accuracy and validated using hexapeptide-12 in view of strong gene expression results with melanocyte cell line in the first study—confirmation of decreased stimulation was obtained. Additional validation was carried out using MSH addition to media to confirm increased stimulation of melanin production. The following compounds used in this study are seen in Table 9.

[2] = tested on: MITF; assay: In vitro MITF gene expression test in cultured fibroblasts; type: cell-based; conditions: 48 hours, 80 ppm Hexapeptide-12, 120 ppm Tripeptide-1 or blend of both, negative = downregulation
Experimental: Microphthalmia-associated transcription factor (MITF) is a master regulator of pigmentation and melanin transfer and a potential new target for hyperpigmentation and melanoma. In vitro MITF gene expression tests were carried out to ascertain differences between individual peptides (tripeptide-1 and hexapeptide-12) and their combination in terms of MITF downregulation.
Specifically, the tests were conducted by culturing fibroblasts and then adding tripeptide-1, hexapeptide-12, or a combination of both. After 48 hours, MITF gene expression was analyzed. […] This increased expression continued to manifest and increased even further at the 72 hour time point.

[3] = tested on: melanocytes; assay: Gene expression study (RNA sequencing) in PGE2-induced melanocytes; type: cell-based, human; conditions: melanocytes induced with 10 uM PGE2, 24 hours of compound exposure
Experimental: Four cell types associated with pigmentation pathways—melanocytes, keratinocytes, fibroblasts and endothelial (HUVEC) cells—were analyzed for gene expression.
To simulate the UV stimulatory pigmentation pathway process, melanocytes were pre-treated with PGE2, a normal direct consequence of UV light exposure usually emanating from exposed keratinocytes. After the 48 hour attachment culture, these melanocytes were induced with 10 uM PGE2 in melanocyte media for 24 hrs. The four primary human adult dermal cell lines were cultured and plated in well plates in triplicate and then treated with 11 different compound treatments (plus DMSO control). After 48 hours of attachment culture, the remaining fibroblasts, HUVECs and keratinocytes were treated with the test compounds listed in Table 8.
After 24 hours of compound exposure, RNA lysate preparation was carried out and samples were shipped to MedGenome for RNA extraction, library construction and sequencing to 25M paired end 100 bp reads per sample. Library prep and sequencing was completed at MedGenome.

[4] = tested on: endothelial cells; assay: Gene expression of PMEL, tyrosinase genes, MC1/4R, EDNRB, MITF, ERK1/2, JNK, AKT1; type: cell-based; conditions: after treatment of endothelial cells as printed
From the text: The methods similar to Examples 3-4 were used to measure expression of PMEL, tyrosinase genes, MC1/4R, EDNRB, MITF, ERK1/2, JNK, and ANKT1.
FIGS. 10A-10D illustrates the expression of PMEL (FIG. 10A), Tyrosinase genes (FIG. 10B), MC1/4R (FIG. 10C), and EDNRB (FIG. 10D) after treatment of endothelial cells with lactoferrin (Lacto), peptide derived from lactoferrin (TCV), hexapeptide-12 (Hex12), tripeptide-1 and hexapeptide-12 (TriHex), hexapeptide-11 (Hex11), tranexamic acid (Tran acid) octapeptide (Octa), phosphatidylserine (phos), Cannabidiol (CBD), and all (total).
MITF is regulated by phosphorylation. Specifically, the MAPK and Akt pathways are known to phosphorylate MITF at certain sites. FIGS. 12A-12C illustrate the expression of ERK1/2 (MAPK3/MAPK1) (FIG. 12A), JNK (FIG. 12B), AKT1 (FIG. 12C) after treatment of endothelial cells with lactoferrin (Lacto), peptide derived from lactoferrin (TCV), hexapeptide-12 (Hex12), tripeptide-1 and hexapeptide-12 (TriHex), hexapeptide-11 (Hex11), octapeptide (Octa), phosphatidylserine (phos), Cannabidiol (CBD), and all (total).

[5] = higher concentration (Lactoferrin 1000, HEX-11 200, Phosphatidylserine 500, Silymarin 20, Sesamol 100, Tranexamic Acid 1000, HEX-12 4.9, ug/mL or ug/uL; Phytoene/Phytofluene 5.00%), 4 days, control = 0.0 row
[6] = lower concentration (Lactoferrin 500, HEX-11 100, Phosphatidylserine 250, Silymarin 10, Sesamol 50, Tranexamic Acid 500, HEX-12 2.9, ug/mL or ug/uL; Phytoene/Phytofluene 2.50%), 4 days, control = 0.0 row

In the case of Oc1ccc2c(c1)OCO2 [Sesamol, 3,4-Methylenedioxyphenol], the “Absorbance 405 nm” value [1, 5] is reported as 0.465, the “Absorbance 490 nm” value [1, 5] is reported as 0.252 and the “Absorbance 492 nm” value [1, 5] is reported as 0.183. The “Absorbance 405 nm” value [1, 6] was 0.602, the “Absorbance 490 nm” value [1, 6] was 0.361 and the “Absorbance 492 nm” value [1, 6] was 0.24. For the same compound, the “Regulation of melanogenesis (decreased absorption denoting decreased melanin formation)” value [1] was “Regulation of melanogenesis was also observed”.
In the case of NC[C@H]1CC[C@H](C(=O)O)CC1 [Tranexamic Acid, Tranexamic acid], the “Absorbance 405 nm” value [1, 5] is reported as 0.406, the “Absorbance 490 nm” value [1, 5] is reported as 0.243 and the “Absorbance 492 nm” value [1, 5] is reported as 0.176. The “Absorbance 405 nm” value [1, 6] was 0.395, the “Absorbance 490 nm” value [1, 6] was 0.254 and the “Absorbance 492 nm” value [1, 6] was 0.187. For the same compound, the “Regulation of melanogenesis (decreased absorption denoting decreased melanin formation)” value [1] was “Regulation of melanogenesis was also observed”.
In the case of “Hexapeptide-12: hexapeptide-12; VGVAPG per Pal-VGVAPG (SEQ ID NO:25) in b49 (Palmitoyl-VGVAPG)”, the “MITF gene expression (down-/upregulation)” value (“MITF gene expression” for short) [2] is reported as −1.16, the “melanogenic gene activity in melanocytes” value [3] is reported as “particularly dominant in melanogenic activity” and the “melanogenic gene activity in melanocytes” value ([3]; listed as hexapeptide-12) is reported as “significant effects on melanogenesis activity”. For the same compound, the “Absorbance 405 nm” value [1, 5] was 0.96, the “Absorbance 490 nm” value [1, 5] was 0.64 and the “Absorbance 492 nm” value [1, 5] was 0.46. For the same compound, the “Absorbance 405 nm” value [1, 6] was 1.32, the “Absorbance 490 nm” value [1, 6] was 0.94 and the “Absorbance 492 nm” value [1, 6] was 0.64. The “Regulation of melanogenesis (decreased absorption denoting decreased melanin formation)” value [1] was “Regulation of melanogenesis was observed”, the “melanogenic activity (expression of PMEL, tyrosinase genes, MC1/4R, EDNRB, kinases)” value [4] was “significant effects on such melanogenic activity” and the “melanogenic activity (expression of PMEL, tyrosinase genes, MC1/4R, EDNRB, kinases)” value ([4]; listed as hexapeptide-12) was “robust melanogenic activity”.
For “MSH: MSH addition to media to confirm increased stimulation of melanin production (SYSMEHFRWGKPV; ends and bridges not checked; UniProt P01189 138-150, looked up)”, the “Absorbance 405 nm” value ([1]; MSH 10 nm media (validation of increased melanin production), control 1.649) was 1.921, the “Absorbance 492 nm” value ([1]; MSH 10 nm media, control 0.501) was 0.573 and the “Absorbance 490 nm” value ([1]; MSH 10 nm media, control 0.971) was 1.155.
Tripeptide-1 was tested, and the “MITF gene expression” value ([2]; listed as Tripeptide) was 1.72 and the “MITF gene expression” value ([2]; listed as tripeptide-1) was “+1.72”.
